Measurements as given in patent publication US10532066B2, “Surfactant lipids, compositions thereof, and uses thereof” (National Jewish Health, priority 2007, dated 2020).

What was measured:
influenza-A virus H3N2 [1] = assay type: cell-based; settings: BEAS2B, multiplicities 1-10, 24, 48 and 72 h, 200 ug/ml POPG added 30 minutes prior
RSV = RSV infection of mice; assay type: in vivo; settings: 10^7 RSV with 200 ug/ml POPG, three days
Procedure: Groups of 8 mice were inoculated with 10^7 RSV in either the absence (RSV), or presence of 200 ug/ml POPG (RSV+POPG). Control experiments consisted of UV inactivated RSV (URV), or saline treatment (CON), or POPG treatment without virus (POPG). Three days after the inoculations, the animals were killed and the lungs harvested and processed for viral content by quantitative plaque assay (left panel of FIG. 41), and histopathology (right panel of FIG. 41)

TLR8 = assay: TLR agonist IL-8 production in primary human neutrophils, TLR8; assay type: cell-based; settings: polyU, 5-24 h
Procedure: (§1) In this experiment, multiple TLRs were stimulated with defined TLR agonists for 5-24 h as indicated, and the IL-8 production was measured. In each case the maximal stimulation by agonist is set at 100% and the antagonism by POPG is expressed as the relative % response. The Controls consist of no treatment, or treatment with POPG, in the absence of agonist as indicated. The agonists for the TLRs consist of Pam3Cys for TLR1/2, double stranded RNA (poly IC) for TLR3, Gram-negative lipopolysaccharide (LPS) for TLR4, and single stranded RNA (polyU) for TLR7/8.

TLR4 = biological target: T1, TLR4 (Homo sapiens, UniProt O00206); assay: TLR agonist IL-8 production in primary human neutrophils, TLR4; assay type: cell-based; settings: LPS, 5-24 h
T1 construct: multiple Toll-like receptors (TLRs) on primary human neutrophils; endogenous in cells; host or cells: primary human neutrophils
T1 sequence (O00206 24-839): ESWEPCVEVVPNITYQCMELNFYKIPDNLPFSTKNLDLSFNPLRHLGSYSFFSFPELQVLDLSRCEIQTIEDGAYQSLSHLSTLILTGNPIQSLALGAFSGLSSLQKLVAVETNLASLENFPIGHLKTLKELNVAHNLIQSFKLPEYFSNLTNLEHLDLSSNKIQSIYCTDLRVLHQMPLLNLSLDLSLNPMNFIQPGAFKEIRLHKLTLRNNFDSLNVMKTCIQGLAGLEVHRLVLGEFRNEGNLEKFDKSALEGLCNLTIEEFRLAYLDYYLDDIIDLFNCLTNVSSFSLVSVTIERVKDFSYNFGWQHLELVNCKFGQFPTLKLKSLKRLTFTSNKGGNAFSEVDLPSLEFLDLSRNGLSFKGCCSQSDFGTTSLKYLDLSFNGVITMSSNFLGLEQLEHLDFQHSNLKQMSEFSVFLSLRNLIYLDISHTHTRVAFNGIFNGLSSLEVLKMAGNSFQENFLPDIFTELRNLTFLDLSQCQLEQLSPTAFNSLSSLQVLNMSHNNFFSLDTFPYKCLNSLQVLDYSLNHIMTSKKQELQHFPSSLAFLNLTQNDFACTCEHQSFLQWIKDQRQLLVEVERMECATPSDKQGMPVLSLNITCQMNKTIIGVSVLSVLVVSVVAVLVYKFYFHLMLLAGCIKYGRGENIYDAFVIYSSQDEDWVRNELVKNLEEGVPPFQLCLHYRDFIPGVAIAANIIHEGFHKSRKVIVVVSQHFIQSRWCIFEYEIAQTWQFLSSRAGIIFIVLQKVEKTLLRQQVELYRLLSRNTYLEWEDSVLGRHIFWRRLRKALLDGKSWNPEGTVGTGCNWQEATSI
T1 sequence (Q9Y6Y9 19-160 partner): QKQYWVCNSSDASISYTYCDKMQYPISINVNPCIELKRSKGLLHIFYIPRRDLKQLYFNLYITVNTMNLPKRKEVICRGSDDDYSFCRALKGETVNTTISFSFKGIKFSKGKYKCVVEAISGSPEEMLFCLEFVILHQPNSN
Procedure: as §1

multiple TLRs = assay: Activation of RAW 264.7 macrophages by multiple TLRs (TNFα, Example 8); assay type: cell-based; settings: 200 ug/ml POPG, 5 hours
MD-2 binding to sTLR4 = biological target: T2, MD-2 binding to sTLR4 (Homo sapiens, UniProt Q9Y6Y9); assay: Phospholipid competition for MD-2-sTLR4 binding
T2 construct: made in house; host or cells: baculovirus-insect cell expression system
T2 sequence (Q9Y6Y9 19-160): as the sequence (Q9Y6Y9 19-160 partner) above
Procedure: CD14 (2 μg) or sTLR4 (100 ng) in aliquots of 20 μl of buffer B were pipeted onto a 96-well plate, and the solvent evaporated using a warm air dryer. […] The amount of bound LBP or MD-2 was detected using specific antibodies.

influenza-A virus H3N2 [2] = assay: Influenza-A cytopathic effects and cell death in BEAS2B cells; assay type: cell-based; settings: 72 h, 200 ug/ml POPG

CCCCCCCC/C=C\CCCCCCCC(=O)O[C@H](COC(=O)CCCCCCCCCCCCCCC)COP(=O)(O)OCC(O)CO (some centres unmarked) [POPG, palmitoyl-oleoyl-phosphatidylglycerol]
influenza-A induced IL-8 production (influenza-A virus H3N2 [1]): suppresses | RSV infection in vivo (lung viral content, histopathology) (RSV): suppresses | activity of TLR8 (IL-8 production) (TLR8): inhibits | activity of TLR4 (IL-8 production) (TLR4): inhibits | activation of RAW 264.7 macrophages by multiple TLRs (TNFα) (multiple TLRs): inhibits activation | inhibition of the MD-2/TLR4 interaction (MD-2 binding to sTLR4; lipid competitor up to 200 μg/ml): approximately 75% | inhibition of the MD-2/TLR4 interaction (MD-2 binding to sTLR4; low levels of lipid competitor (20 μg/ml)): 40% | cell death induced by influenza A infection (influenza-A virus H3N2 [2]): prevents cell death
